Patent US11466033B2 (ENANTA PHARMACEUTICALS, INC., priority 2019, dated 2022)

Molecular target: ASK1 (Homo sapiens (Human), UniProt Q99683)
Test: HTRF KinEASE assay, inhibition of ASK1
Type: biochemical
Conditions: ASK1 kinase, 100 μM ATP, 1 μM STK3 peptide substrate, TR-FRET
Protocol: Assay HTRF® KinEASE™ Assay
ASK1 was purchased from Thermofisher (Catalogue #PV4011), ATP was purchased from Sigma (Catalogue #A7699), HTRF® KinEASE™ Assay System was obtained from Cisbio (Bedford, Mass.). ½ Area plate was purchased from Perkin Elmer (Catalogue ##6005560). HTRF® KinEASE™-STK is a generic method for measuring serine/threonine kinase activities using a time-resolved fluorescence resonance energy transfer (TR-FRET) immunoassay. The IC50 value for each compound was determined in the presence of compound (various concentration from 0 to 10 μM) and a fixed amount of ATP and peptide substrates. The test compound, 1 μM STK3 peptide substrate, and […] of ASK1 kinase are incubated with kinase reaction buffer containing 50 mM HEPES Ph 7.5, 0.01% BRIJ-35, 10 mM MgCl2, and 1 mM EGTA for 30 minutes. 100 μM ATP is added to start kinase reaction and incubated for 3 hours. The STK3-antibody labeled with Eu^3+-Cryptate and 125 nM streptavidin-XL665 are mixed in a single addition with stop reagents provided by the Cisbio kit used to stop the kinase reaction. Fluorescence is detected using an Envision Multilabeled 2014 reader from PerkinElmer. The Fluorescence is measured at 615 nm (Cryptate) and 665 nm (XL665) and a ratio of 665 nm/615 nm is calculated for each well. The resulting TR-FRET is proportional to the phosphorylation level. Staurosporine was used as the positive control. IC50 was determined by Xlfit 5.3.
By using above method, the inhibition of ASK1 was evaluated for the compounds of Formula (I). Example numbers correspond to those in Table 6.

Sequence of ASK1 (Q99683 whole entry): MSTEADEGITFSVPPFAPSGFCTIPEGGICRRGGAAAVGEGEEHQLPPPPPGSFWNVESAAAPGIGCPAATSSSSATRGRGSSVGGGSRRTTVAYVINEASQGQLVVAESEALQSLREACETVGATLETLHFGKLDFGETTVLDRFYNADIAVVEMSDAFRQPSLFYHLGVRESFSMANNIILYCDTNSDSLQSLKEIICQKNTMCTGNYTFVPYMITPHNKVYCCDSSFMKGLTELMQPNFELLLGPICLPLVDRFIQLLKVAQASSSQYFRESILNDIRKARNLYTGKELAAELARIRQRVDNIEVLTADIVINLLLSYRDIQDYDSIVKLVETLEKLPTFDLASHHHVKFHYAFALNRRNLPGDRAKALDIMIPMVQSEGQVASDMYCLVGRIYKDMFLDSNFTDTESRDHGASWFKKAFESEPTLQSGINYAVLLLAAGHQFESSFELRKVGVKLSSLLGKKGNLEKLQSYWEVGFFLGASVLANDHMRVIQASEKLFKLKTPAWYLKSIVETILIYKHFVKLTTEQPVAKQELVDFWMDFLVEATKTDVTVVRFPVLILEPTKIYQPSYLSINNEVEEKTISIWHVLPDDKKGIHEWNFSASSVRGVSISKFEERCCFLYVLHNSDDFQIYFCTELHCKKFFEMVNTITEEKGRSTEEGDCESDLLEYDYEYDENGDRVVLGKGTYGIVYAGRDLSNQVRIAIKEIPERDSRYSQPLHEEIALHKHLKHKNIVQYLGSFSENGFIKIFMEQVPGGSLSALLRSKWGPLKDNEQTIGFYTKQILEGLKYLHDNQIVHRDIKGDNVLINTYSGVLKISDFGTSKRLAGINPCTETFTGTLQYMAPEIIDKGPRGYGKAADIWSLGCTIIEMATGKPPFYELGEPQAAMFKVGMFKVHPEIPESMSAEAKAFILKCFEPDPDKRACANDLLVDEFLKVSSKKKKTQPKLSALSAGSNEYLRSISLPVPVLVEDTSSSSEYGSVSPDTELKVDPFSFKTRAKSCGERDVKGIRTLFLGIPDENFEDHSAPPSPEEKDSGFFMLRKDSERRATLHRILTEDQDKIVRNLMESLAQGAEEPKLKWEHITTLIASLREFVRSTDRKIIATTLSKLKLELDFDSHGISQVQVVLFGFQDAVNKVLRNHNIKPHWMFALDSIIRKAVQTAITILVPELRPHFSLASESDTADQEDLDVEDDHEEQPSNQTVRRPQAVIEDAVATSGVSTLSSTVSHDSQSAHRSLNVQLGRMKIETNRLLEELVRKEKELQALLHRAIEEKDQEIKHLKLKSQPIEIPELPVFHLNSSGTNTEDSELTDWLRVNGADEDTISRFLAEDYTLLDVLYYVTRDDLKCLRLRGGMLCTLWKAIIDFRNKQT

Row | SMILES | IC50 [nM]
1 | CCOC(=O)N1CCc2cc(F)c(C(=O)Nc3cccc(-c4nnc5n4[C@H](C)CC5)n3)cc2C1 [Example 12] | 1.25 to 10
2 | COc1cc2c(cc1C(=O)Nc1cccc(-c3nnc4n3C(C)(C)CC4)n1)CN(C(=O)[C@@H](O)CC(C)C)CC2 [Example 19, (S)—N-(6-(5,5-dimethyl-6,7-dihydro-5H-pyrrolo[2,1-c][1,2,4]triazol-3-yl)pyridin-2-yl)-2-(2-hydroxy-4-methylpentanoyl)-6-methoxy-1,2,3,4-tetrahydroisoquinoline-7-carboxamide] | < 1.25
3 | COc1cc2c(cc1C(=O)Nc1cccc(-c3nnc4n3C(C)(C)CC4)n1)CN(C(=O)C(C)(C)CO)CC2 [Example 17, N-(6-(5,5-dimethyl-6,7-dihydro-5H-pyrrolo[2,1-c][1,2,4]triazol-3-yl)pyridin-2-yl)-2-(3-hydroxy-2,2-dimethylpropanoyl)-6-methoxy-1,2,3,4-tetrahydroisoquinoline-7-carboxamide] | < 1.25
4 | CCOC(=O)N1CCc2cc(OC)c(C(=O)Nc3cccc(-c4nnc5n4CCC5)n3)cc2C1 [Example 21, Ethyl 7-((6-(6,7-dihydro-5H-pyrrolo[2,1-c][1,2,4]triazol-3-yl)pyridin-2-yl)carbamoyl)-6-methoxy-3,4-dihydroisoquinoline-2(1H)-carboxylate] | 1.25 to 10
5 | COCCC(=O)N1CCc2cc(OC)c(C(=O)Nc3cccc(-c4nnc5n4C(C)(C)CC5)n3)cc2C1 [Example 16, N-(6-(5,5-dimethyl-6,7-dihydro-5H-pyrrolo[2,1-c][1,2,4]triazol-3-yl)pyridin-2-yl)-6-methoxy-2-(3-methoxypropanoyl)-1,2,3,4-tetrahydroisoquinoline-7-carboxamide] | < 1.25
6 | COc1cc2c(cc1C(=O)Nc1cccc(-c3nnc4n3C(C)(C)CC4)n1)CN(C(=O)C[C@H](C)O)CC2 [Example 18, (S)—N-(6-(5,5-dimethyl-6,7-dihydro-5H-pyrrolo[2,1-c][1,2,4]triazol-3-yl)pyridin-2-yl)-2-(3-hydroxybutanoyl)-6-methoxy-1,2,3,4-tetrahydroisoquinoline-7-carboxamide] | < 1.25
7 | CCOC(=O)N1CCc2cc(F)c(C(=O)Nc3cccc(-c4nnc5n4[C@@H](C)CC5)n3)cc2C1 [Example 13] | 10 to 100
8 | COc1cc2c(cc1C(=O)Nc1cccc(-c3nnc4n3C(C)(C)CC4)n1)CN(C(=O)OC(C)(C)C)CC2 [Example 14, tert-butyl 7-((6-(5,5-dimethyl-6,7-dihydro-5H-pyrrolo[2,1-c][1,2,4]triazol-3-yl)pyridin-2-yl)carbamoyl)-6-methoxy-3,4-dihydroisoquinoline-2(1H)-carboxylate] | 1.25 to 10
9 | COc1cc2c(cc1C(=O)Nc1cccc(-c3nnc4n3C(C)(C)CC4)n1)CN(C(=O)C(C)(C)O)CC2 [Example 20, N-(6-(5,5-dimethyl-6,7-dihydro-5H-pyrrolo[2,1-c][1,2,4]triazol-3-yl)pyridin-2-yl)-2-(2-hydroxy-2-methylpropanoyl)-6-methoxy-1,2,3,4-tetrahydroisoquinoline-7-carboxamide] | < 1.25
10 | CCOC(=O)N1CCc2cc(F)c(C(=O)Nc3cccc(-c4nnc5n4C(C)(C)CC5)n3)cc2C1 [Example 11, Ethyl 7-((6-(5,5-dimethyl-6,7-dihydro-5H-pyrrolo[2,1-c][1,2,4]triazol-3-yl)pyridin-2-yl)carbamoyl)-6-fluoro-3,4-dihydroisoquinoline-2(1H)-carboxylate] | 1.25 to 10
11 | CCOC(=O)N1CCc2cnc(C(=O)Nc3cccc(-c4nnc5n4[C@H](C)CC5)n3)cc2C1 [Example 15] | 1.25 to 10
